{"source": "patent US4976950A", "about": "“Bone marrow suppressing agents” (The Dow Chemical Company, priority 1989, dated 1990)", "key": {"white blood cell": {"test_system": "white blood cell", "experiment": "White blood cell count after injection of radionuclide complex (Unopette Test 5856)", "format": "in vivo, Sprague Dawley rats", "procedure": "Six Sprague Dawley rats were allowed to acclimate for a period of 6 days then a sample of blood was taken daily from the tail vein and the white blood cell count determined by a standard manual method (Unopette Test 5856 from Becton-Dickinson and Company). On the fourth day, rats numbered 2, 4 and 6 were injected with 0.9 mCi (33.3 MBq) of the above complex. The rat weight at this time ranged from 160-180 g. On days 7, 8, and 9 the white blood cell count was again determined for each rat. Table VI gives the white blood cell count of the injected (2, 4 and 6) rats compared to the control rats (1, 3, and 5). […]"}, "[1]": {"experiment": "Biodistribution: % of injected dose in tissue 2 hours after tail vein injection (NaI scintillation counting)", "format": "in vivo, Sprague Dawley rats", "settings": "rat i.v.", "procedure": "(§1) The rats weighed between 150 and 200 g at the time of injection. After 2 hours the rats were killed by cervical dislocation and dissected. The amount of radioactivity in each tissue was determined by counting in a NaI scintillation counter coupled to a multichannel analyzer. The counts were compared to the counts in 100 μL standards in order to determine the percentage of the dose in each tissue or organ.\nas §1, with “to determined” for “to determine”, “organ. The numbers represent the average of 5 rats per data point.” for “organ.”\nas §1, with “Sprague Dawley rats were allowed to acclimate for five days then injected with 100 μL of the Sm solution described above via a tail vein. The rats” for “The rats”, “or organ. The numbers represent the average of 3 rats per data point.” for “or organ.”\nas §1, with “Sprague Dawley rats were allowed to acclimate for five days then injected with 100 μL of the Ho solution described above via a tail vein. The rats” for “The rats”, “each tissue wa determined by” for “each tissue was determined by”, “or organ. The numbers represent the average of 3 rats per data point.” for “or organ.”\nSprague Dawley rats were allowed to acclimate for five days then injected with 100 μL of the solutions described above via a tail vein. The rats weighed between 150 and 200 g at the time of injection. After 2 hours the rats were killed by cervical dislocation. Tissues were taken, weighed and the amount of radioactivity determined by counting in a NaI scintillation counter coupled to a multichannel analyzer. The counts in each tissue were compared to the counts in 100 μL standards in order to determine the percentage of the dose in each tissue or organ.\nA Sprague Dawley rat was allowed to acclimate for five days then injected with 175 μL of the solution described above via a tail vein. The rat weighed 155 g at the time of injection. After 2 hours the rat was killed by cervical dislocation and dissected. The amount of radioactivity in each tissue was determined by counting in a NaI scintillation counter coupled to a multichannel analyzer. The counts in each tissue were compared to the counts in […] standards in order to determine the percentage of the dose in each tissue or organ."}, "[2]": {"settings": "0.9 mCi (33.3 MBq) injected Day 4, individual rats 2, 4, 6 (Day 4 counts 28950, 21300, 17600)"}}, "note": "“And” between values parts separate entries of the source, which are not always exact repeats. Equal values may be shown once.", "data": [{"smiles": "O=P([O-])(O)CN1CCN(CP(=O)(O)O)CCN(CP(=O)([O-])O)CCN(CP(=O)(O)O)CC1.[166Ho]", "note": "[Ho-DOTMP]", "values": [{"measurement": "Blood count of treated animals compared to untreated animals", "setting": "white blood cell; 0.9 mCi (33.3 MBq) i.v., rats, days 7, 8 and 9, injected on day 4", "result": "significant drop in the blood count"}, {"measurement": "White blood cell count, Day 7", "setting": "white blood cell; [2]", "result": "5850 and 7400 and 5400"}, {"measurement": "White blood cell count, Day 8", "setting": "white blood cell; [2]", "result": "7950 and 7500 and 4750"}, {"measurement": "White blood cell count, Day 9", "setting": "white blood cell; [2]", "result": "7900 and 7550 and 5350"}, {"measurement": "% Injection dose in blood", "setting": "[1]; Table IV, Blood, 0.6 mM Ho, ligand to Ho ratio approximately 1.5, average of 3 rats", "result": 0.07, "unit": "%"}, {"measurement": "% Injection dose in kidney", "setting": "[1]; Table IV, Kidney, 0.6 mM Ho, ligand to Ho ratio approximately 1.5, average of 3 rats", "result": 0.4, "unit": "%"}, {"measurement": "% Injection dose in liver", "setting": "[1]; Table IV, Liver, 0.6 mM Ho, ligand to Ho ratio approximately 1.5, average of 3 rats", "result": 0.07, "unit": "%"}, {"measurement": "% Injected dose in blood", "setting": "[1]; Table V, Blood, ligand of Example 2, cation exchange purified, average of 3 rats", "result": 0.17, "unit": "%"}, {"measurement": "% Injected dose in bone", "setting": "[1]; Table V, Bone, ligand of Example 2, cation exchange purified, average of 3 rats", "result": 64, "unit": "%"}, {"measurement": "% Injected dose in liver", "setting": "[1]; Table V, Liver, ligand of Example 2, cation exchange purified, average of 3 rats", "result": 0.19, "unit": "%"}]}]}
